Results from patent US6900024B2, “T cell receptor ligands and methods of using same” (The United States of America as represented by the …, priority 1993, dated 2005).
Ends that are not written are not given here. * marks the point of attachment. long‑chain biotin = O=C(CCCC[C@@H]1SC[C@@H]2NC(=O)N[C@@H]21)NCCCCCC(=O)*

Legend:
[1] = tested on: MHC molecules with kss Eβ chains; experiment: Peptide binding to cell-associated class II MHC molecules using biotinylated peptides; set-up: species or system mouse
Description: A modified version of the assay described in Busch et al., Int. Immunol., 2, 443-51 (1990), was used to measure peptide binding to cell-associated class II MHC molecules. After extensive washing in phosphate buffered saline (PBS)-1% bovine serum albumin (BSA), 2×10^5 DAP.3 cells or DAP.3 transfectants expressing various EαEβ molecules were incubated at 37° C. in 200 μl of PBS-2% FCS containing the indicated concentration of biotinylated peptide. In the competition experiments competitors were added at the same time as labeled peptide and at the indicated concentrations. After 4 hours, the cells were washed and stained with a sandwich of FITC-avidin (Vector), biotinylated-anti-avidin (Vector), and FITC-avidin (Vector). After washing, the cells were analyzed on a FAScan flow cytometer for fluorescence. Only viable cells were considered in the analysis, as determined by PI staining. The data are expressed as net mean fluorescence intensity (MFI), calculated by subtracting from the actual MFI the MFI obtained by staining in the absence of biotinylated-peptide. Percent inhibition in the competition experiments was calculated as: % of I=(net MFI without competitor−net MFI with competitor)/(net MFI without […]).

3C6 Th1 cells = experiment: IL-2 production by 3C6 Th1 cells co-cultured with transfected L cells (CTLL indicator cells); assay type: cell-based, mouse; details: L cells expressing MHC molecules with kss Eβ chains
Description: Production of IL-2 and IL-3 in response to L cell transfectants in the presence or absence of added peptide was measured as described in Ronchese et al., Nature, 329, 254-6 (1987b). In brief, 2−5×10^4 T cells were incubated with 2−5×10^4 transfected L cells in the wells of 96-well flat bottom culture plates in 200 μl of complete medium with or without various concentrations of peptide antigen. Supernatants were collected after 24 hours and assayed for IL-2 content using CTLL indicator cells, or for IL-3 content using FDC.1 cells. IL-2 and IL-3 units were calculated as the inverse of the dilution giving 50% of the maximum ^3H-thymidine incorporation by CTLL (IL-2) or FDC.1 (IL-3) cells observed with reference IL-2 and IL-3 preparations. Proliferative responses were measured by assessing ^3H-thymidine incorporation between 48-66 hrs of culture. For experiments in which the data are expressed as “% max” or “% alloresponse”, the actual absolute 100% responses were: IL-2 alloresponse, 10-40 units/ml; IL-3 alloresponse, 100-500 units/ml; IL-2 response to EαEβ^k plus PCC peptide, 150-300 units/ml; IL-3 response to EαEβ^k plus PCC peptide, 1000-10,000 units/ml; IL-2 response to fixed cells bearing EαEβ^k plus PCC peptide, 30-50 units/ml; IL-3 response to fixed cells bearing EαEβ^k plus PCC peptide, 50-200 units/ml. […]

Row | Substance | binding to MHC molecule with kss chains, competition for binding of biotinylated-DASP ([1]; biotinylated-DASP 25 μM, FIG. 2A) | effect of peptide on alloreactive stimulation of IL-2 production (3C6 Th1 cells) | direct binding of biotinylated peptide to MHC molecules with kss chains ([1]; FIG. 3A)
1 | HEL 46-61: hen egg lysozyme (HEL) peptide 46-61 | able to bind the MHC molecule with kss chains to a similar extent as the inhibitory PCC 81-104 peptide | – | –
2 | HEL 81-96: hen egg lysozyme (HEL) peptide 81-96, with NH2-terminal long-chain biotin in FIG. 3 ({long‑chain biotin}-SALLSSDITASVNCAK; UniProt P00698 99-114, looked up, fragment) | – | lacked ability to inhibit alloreactive stimulation of IL-2 production | bound well to the MHC molecules with kss chains
